Test results taken from patent US10828275B2, “Selective targeting of procoagulant platelets” (NewSouth Innovations Pty Limited, priority 2014, dated 2020).
pIC50: −log10 of the molar value. Residues, ends and D or L forms follow the SMILES beside them. *: point of attachment. Cbz = O=C(OCc1ccccc1)*; CH2F = FC*

How the values were obtained:
washed human platelets [1] = assay: ABT-737 induced platelet apoptosis and pancaspase inhibition (flow cytometry); format: cell-based
Protocol: FIG. 4. Labeling with GSAO and exposure of P-selectin distinguishes necrotic from apoptotic platelets. […] The percentage of GSAO+ platelets are graphed with respect to P-selectin exposure. C. Washed human platelets were preincubated with 200 μM of ZVADFMK or vehicle control for 15 min then incubated with 30 μM of ABT-737 for 2 h (part F), or stimulated with thrombin (0.1 units/mL) and collagen (5 μg/mL) for 10 min (part G). Labeling with GSAO-AF647 and exposure of P-selection was measured by flow cytometry. D. Washed human platelets from healthy donors (n=5-11) were untreated or stimulated with thrombin (0.1 units/mL), collagen (5 μg/mL), or thrombin (0.1 units/mL) and collagen (5 μg/mL) for 10 min. […] The error bars are mean±SD.
Bcl-XL dependent apoptosis is involved in regulation of platelet life span, although the role of platelet apoptosis in thrombosis is controversial. In order to determine if GSAO can differentiate agonist-induced necrotic versus apoptotic platelets, platelet apoptosis was triggered using the BH3 mimetic ABT-737. GSAO labelled P-selectin negative apoptotic platelets (FIGS. 4A and B). The GSAO+ population also labeled with a polycaspase marker and annexin V, both indicators of apoptotic cells. […] Washed platelets from healthy donors were untreated or stimulated with thrombin, collagen or thrombin and collagen and examined for apoptosis (GSAO+/P-selectin−) and necrosis (GSAO+/P-selectin+) (FIG. 4D). These agonists trigger platelet necrosis but not apoptosis.

washed human platelets [2] = assay: Direct mitochondrial membrane depolarization and GSAO labelling; format: cell-based; details: CCCP 4 μM
From the text: FIG. 9. Mitochondrial membrane disruption is not sufficient for GSAO labeling.
The cyclophilin D-dependent regulated necrosis pathway is characterized by agonist stimulation, raised intracellular calcium, formation of the mitochondrial transition pore and loss of mitochondrial membrane potential. Dual agonist stimulation of platelets results in loss of mitochondrial transmembrane potential (FIG. 5A). The onset of mitochondrial depolarisation (FIG. 5B) and phosphatidylserine exposure (FIG. 5C) are coincident with GSAO labeling.
Mitochondrial membrane potential was measured using the JC-1 cationic dye (5,5′,6,6′-tetrachloro-1,1′,3,3′-tetraethyl-imidacarbocyanine iodide, Sigma) (Life Technologies). Washed platelets were incubated with JC-1 (2 μM) for 30 min in the dark at 37° C., washed once and analyzed immediately on a BDFACS Canto II. On some occasions, washed platelets were incubated with the mitochondrial membrane disrupter 2-[2-(3-chlorophenyl)hydrazinylyidene]propanedinitrile (CCCP, 4 μM) for 10 min.

[3] = system: P-selectin+ activated platelets; assay: DIDS effect on GSAO-AF647 labelling of agonist-stimulated platelets (flow cytometry); format: cell-based, human; details: thrombin (0.1 units/mL) and collagen (5 μg/mL); 0-200 μM DIDS for 10 min; read-out: half-maximal concentration for inhibition of GSAO labelling of P-selectin+ activated platelets
Protocol: (§1) FIG. 2. GSAO rapidly enters the activated platelet subpopulation via an organic anion-transporting polypeptide. A. The kinetics of labeling of stimulated platelets with GSAO-AF647 was measured by time lapse flow cytometry. Flow plots are representative of n≥3 separate experiments, and bars and data points are from n≥3 separate experiments. *p<0.05, ****p<0.0001. B-C. […] DIDS inhibited GSAO labelling of P-selectin+ activated platelets at a half-maximal concentration of ˜30 μM. The data points and errors are the mean±range of 1-5 experiments.
The organic anion-transporting polypeptide (OATP) family has been implicated in transport across the plasma membrane of organic anions in the same class as GSAO (Dilda et al., 2009; Dilda et al., 2008). Nine members of the OATP family have been reported in humans (Hagenbuch et al., 2003) and platelets express OATP2B1 (Niessen et al., 2009). DIDS is an inhibitor of OATP class B transporters (Kobayashi et al. 2003) and the present inventors tested its effect on GSAO labelling of agonist-stimulated platelets. DIDS inhibited GSAO labelling of P-selectin+ activated platelets (FIG. 2B) at a half-maximal concentration of ˜30 μM (FIG. 2C). GSAO is retained in the platelet cytoplasm through covalent reaction with closely-spaced protein cysteine thiols (Park et al., 2011) (data not shown).

washed human platelets [4] = assay: GSAO-AF647 labelling of thrombin and collagen stimulated platelets after preincubation; format: cell-based; details: CaCl2 preincubation 15 min
Protocol: FIG. 5. […] A. Washed human platelets were untreated or stimulated with thrombin (0.1 units/mL) and collagen (5 μg/mL) or the mitochondrial membrane disrupter CCCP (4 μM). Mitochondrial transmembrane potential was measured using the cationic dye, JC-1. The ratio of distribution of JC-1 between the mitochondria (red fluorescence) and cytosol (green fluorescence) reflects mitochondrial transmembrane potential. […] B-C. […] E. Washed human platelets were preincubated with CaCl2 for 15 min and then untreated or stimulated with thrombin (0.1 units/mL) and collagen (5 μg/mL).

washed human platelets [5] = assay: GSAO-AF647 labelling and P-selectin exposure of washed platelets (flow cytometry); format: cell-based; details: thrombin 0.1 units/mL, collagen 5 μg/mL
Protocol: FIG. 1. GSAO labels a subpopulation of activated platelets. A. Structure of GSAO and site of conjugation of AF647, Oregon Green or biotin. B. Washed human platelets were stimulated with calcium ionophore (1 μM) and activation and plasma membrane compromise measured by flow cytometry. […] C. […] E. Washed human platelets were stimulated with collagen or collagen-related peptide and co-labeling with P-selectin and GSAO-AF647 measured by flow cytometry.
Calcium ionophore treatment of platelets leads to a sustained rise in intracellular calcium and surface elaboration of phosphatidylserine, which are features of both the procoagulant and necrotic phenotype (Bevers et al., 1982). Washed human platelets were treated with calcium ionophore and labeled with GSAO-AF647 and an antibody against the α-granule marker, P-selectin.
To determine whether GSAO labeling reflects this agonist profile, washed human platelets were stimulated with thrombin, collagen, or both thrombin and collagen. […] To determine if signalling through the collagen receptor, GPVI, was sufficient to generate the GSAO+ phenotype, the maximal proportion of GSAO+ platelets generated by collagen was compared with the GPVI specific activator, collagen related peptide.
The relationship between the activated and procoagulant phenotype of platelets remains controversial (Dale et al., 2002; Abaeva et al., 2013). Procoagulant platelets are characterised by presence of phosphatidylserine on the platelet surface, surface binding of plasma derived activated clotting factors, ability to generate thrombin and promotion of fibrin formation. Regardless of the agonist stimulus, 100% of GSAO+ platelets were positive for α-granule P-selectin, which implies that α-granule release is a prerequisite for GSAO labeling after agonist stimulation (FIG. 1). […] Of note, a subpopulation of GSAO− platelets also bound annexin V so platelet necrosis is not required for exposure of phosphatidylserine.

stimulated platelets = assay: Kinetics of GSAO-AF647 labelling by time lapse flow cytometry; format: cell-based, human
Protocol: as §1
The rate of GSAO+ platelet generation after agonist exposure was measured using time lapse flow cytometry. Results are reported for GSAO+ events based on lead in time prior to agonist exposure threshold.

[6] = system: platelets in human whole blood; assay: Whole blood assay for procoagulant platelet potential, human blood; format: cell-based; details: for proportion of procoagulant platelets (GSAO+/P-selectin+): thrombin 2 U/mL, collagen 10 μg/mL, mean±SEM, 16-35 donors
From the text: FIG. 12. Gating strategy for detection of procoagulant platelets in human whole blood. A. Platelets were identified as CD41a positive and CD45 negative events. B. Threshold values for P-selectin and GSAO fluorescence were set using agonist stimulated sample stained with control IgG isotype and GSCA respectively. C. At rest, very few platelets show the procoagulant phenotype (P-selectin+/GSAO+).
FIG. 13. Assay for procoagulant platelet potential in human blood. […] The maximal response (17.3±1.3%) was observed after stimulation with combination of thrombin and collagen. Results are mean±SEM from 16-35 donors. One-way ANOVA, […], Holm-Sidak multiple comparisons correction. *, p<0.05; ****, p<0.0001.
(§2) Blood from healthy human volunteers was drawn from an antecubital fossa vein using a 21-gauge needle into evacuated sterile collection tubes containing 0.109 M sodium citrate. Following no or minimal tourniquet application, the initial 2 mL of blood was discarded to avoid pre-analytical activation of platelets. The tube was gently mixed by inversion six times. Murine blood samples were collected by cardiac puncture under isoflurane anesthesia. Following midline abdominal and bilateral subcostal surgical incisions to expose the heart, blood was drawn from the left ventricle through a 25G needle into a 1 mL syringe containing sodium citrate (0.109 M) resulting in a blood to citrate ratio of 9:1. The needle was removed and the blood was gently expelled from the syringe into a sterile microcentrifuge tube and mixed gently by pipetting up and down 5 times.
Following collection, tubes were kept upright at room temperature and blood was assayed within 15 min of collection. Incubation and staining steps were performed in a sterile 96-well polypropylene plate. […]
(§3) Fixed cells were analyzed by flow cytometry 1 to 3 h after fixation at an average event rate of 2000 events per sec in an LSRFortessa flow cytometer, equipped with either four (405 nm, 488 nm, 561 nm and 640 nm) or five (395 nm) lasers (BD Biosciences). […]

platelets in mouse blood = assay: Whole blood assay for procoagulant platelet potential, mouse blood; format: cell-based; details: thrombin 2 U/mL, CRP 500 ng/mL; n=3 C57Bl6 bloods
Protocol: FIG. 14. Assay for procoagulant platelet potential in mouse blood. […] Bars and errors are mean±SEM of n=3 C57B16 bloods. One-way ANOVA. **, p<0.01; ****, p<0.0001.
as §2
Following collection, tubes were kept upright at room temperature and blood was assayed within 15 min of collection. […]
as §3

Compound: CN(C)CC[C@H](CSc1ccccc1)Nc1ccc(S(=O)(=O)NC(=O)c2ccc(N3CCN(Cc4ccccc4-c4ccc(Cl)cc4)CC3)cc2)cc1[N+](=O)[O-] [ABT-737]
- platelet phenotype induced (washed human platelets [1]; ABT-737 for 2 h): induced GSAO+/P-selectin− platelets

Compound: N#CC(C#N)=NNc1cccc(Cl)c1 [CCCP, 2-[2-(3-chlorophenyl)hydrazinylyidene]propanedinitrile]
- GSAO labelling after direct mitochondrial membrane depolarization (washed human platelets [2]): does not result in GSAO labelling

Compound: O=S(=O)(O)c1cc(N=C=S)ccc1C=Cc1ccc(N=C=S)cc1S(=O)(=O)O [DIDS]
- pIC50 [3]: ~4.52

Compound: COC(=O)C[C@H](NC(=O)[C@H](C)NC(=O)[C@@H](NC(=O)OCc1ccccc1)C(C)C)C(=O)CF [ZVADFMK] (Cbz-Val-Ala-Asp(OMe)-CH2F)
- effect on ABT-737 induced GSAO+/P-selectin− platelets (washed human platelets [1]; 200 μM ZVADFMK 15 min, then 30 μM ABT-737 2 h): reduced
- effect on GSAO labeling of thrombin and collagen stimulated platelets (washed human platelets [1]; 200 μM ZVADFMK 15 min, then agonists 10 min): no effect

Compound: [Ca] [calcium]
- effect of added calcium on GSAO+ agonist stimulated platelets (washed human platelets [4]): promoted

Compound: collagen
- GSAO+ platelets generated by agonist (washed human platelets [5]): moderate proportion
- time course of GSAO labeling after agonist (stimulated platelets): gradual increase in GSAO labeling over 60 sec
- proportion of procoagulant platelets (GSAO+/P-selectin+) [6]: 1.2±0.2%

Compound: collagen related peptide
- GSAO+ platelets generated by agonist (washed human platelets [5]): majority of the collagen effect was recapitulated
- potency as inducer of murine procoagulant platelets (platelets in mouse blood): significantly less potent than thrombin but synergizes with thrombin

Compound: thrombin
- GSAO+ platelets generated by agonist (washed human platelets [5]): minimal GSAO+ platelets
- time course of GSAO labeling after agonist (stimulated platelets): little GSAO labeling compared with unstimulated platelets
- potency as inducer of procoagulant platelets in human blood [6]: most potent inducer
- proportion of procoagulant platelets (GSAO+/P-selectin+) [6]: 13.2±1.1%
- potency as inducer of murine procoagulant platelets (platelets in mouse blood): most potent inducer
